Assay results reported in paper PMC4552634, “A New Set of Chemical Starting Points with Plasmodium falciparum Transmission-Blocking Potential for Antimalarial Drug Discovery” (PLoS ONE, 2015).
pIC50: −log10 of the molar value. Read-outs that look alike come from different tables or passages of the source.

How the values were obtained:
[1] = system: HepG2 cells; assay: Cytotoxicity in HepG2 cells (intracellular ATP, ATPlite, 48 h); type: cell-based, human; details: HepG2 cells; IC50 per ratio column head; unit inferred
[2] = system: P. falciparum stage V gametocytes; assay: Gametocytocidal ATP bioluminescence assay (single point 5 μM and 1 μM, dose-response); type: cell-based, Plasmodium falciparum; details: for Ratio IC50 HepG2/IC50 P. falciparum: IC50 HepG2 divided by IC50 P. falciparum gametocytes; for IC50: P. falciparum gametocytes, average, read-out: IC50 Pf Gametocytes average, IC50 (µM) average; for pIC50: sexual stages (gametocytes), dose-response, read-out: IC50 sexual
Procedure: Purified stage IV-V gametocytes were obtained as previously described [10]. Single point ATP bioluminescence assay and dose–response of positive hits was determined in accordance with the previously published protocol [10].

[3] = system: P. falciparum asexual stages; details: asexual stages; TCAMS data; read-out: IC50 asexual; cited from earlier work

Row | SMILES | pIC50 [1] | Ratio IC50 HepG2/IC50 P. falciparum [2] | IC50 [2] [µM] | pIC50 [3] | pIC50 [2]
1 | CN(C)CCN(C)Cc1cccc(-c2ccc3c(Nc4ccc(F)cc4Cl)ccnc3c2)c1 [TCMDC-138416] | 5.44 | 7.5 | 0.48 | 6.96 | –
2 | CCOc1cc(CNCCCCCCNCc2cc(OCC)c(OCC)c3ccccc23)c2ccccc2c1OCC [TCMDC-137939] | 5.57 | 3.62 | 0.75 | 6.55 | 6.13
3 | c1ccc2c(NCCCCCCCCCNc3ccnc4ccccc34)ccnc2c1 [TCMDC-137750] | 5.54 | 2.83 | 1.03 | 6.94 | 5.99
4 | FC(F)(F)COc1ccc2ccccc2c1CNCCCCCCNCc1c(OCC(F)(F)F)ccc2ccccc12 [TCMDC-137816] | 5.52 | 8 | 0.37 | 6.45 | –
5 | CC(Cc1ccc(COc2ccc(CC(CO)NCCc3cccc(Cl)c3)cc2)cc1)NCCc1cccc(Cl)c1 (stereo not shown) [TCMDC-139844] | 5.46 | 2.53 | 1.39 | 6.09 | 5.86
6 | CCCCCCCN1CC[C@@H](CCCc2ccnc3ccc(OCCC4CCNCC4)cc23)[C@@H](CC)C1 [TCMDC-139819] | 5.35 | 11 | 0.42 | 6.21 | 6.38
7 | COc1cc2ccccc2c(CNCCCCCCNCc2c(OC)c(OC)cc3ccccc23)c1OC [TCMDC-137795] | 5.33 | 4.5 | 1.05 | 5.95 | 5.98
8 | CC(C)Oc1ccc2ccccc2c1CNCCCCCCNCc1c(OC(C)C)ccc2ccccc12 [TCMDC-137965] | 5.62 | 17 | 0.14 | 6.21 | –
9 | CCn1c(Sc2ccc([N+](=O)[O-])c(C#N)c2)nnc1-c1cccc(Cl)c1 [TCMDC-135234] | < 4.60 | >8 | 3.04 | 6.06 | –
10 | COc1ccc(CCNCCCCCCNCCc2ccc(Cl)c3ccccc23)cc1OC [TCMDC-131270] | 5.49 | 25 | 0.13 | 6.24 | 6.90
11 | COc1cccc(CCc2c(CCNCCCCCCNCCc3ccccc3)ccc(OC)c2OC)c1 [TCMDC-132105] | 5.11 | 44 | 0.18 | 6.14 | 6.75
12 | CCN(CC)CCCNc1ncc2c(-c3ccc(NC(=O)Nc4cc(C(F)(F)F)ccc4F)cc3)nn(C)c2n1 [TCMDC-141583] | 5.02 | 2.73 | 3.48 | 6.66 | –
13 | CCCCCCCN1CC[C@@H](CCCc2ccnc3ccc(OCC4CCCNC4)cc23)[C@@H](CC)C1 (stereo partly shown) [TCMDC-139816] | 5.38 | 14 | 0.3 | 6.20 | –
14 | C[C@H](Cc1ccc(CCc2ccc(C[C@@H](C)NC[C@H](O)c3cccc(Cl)c3)cc2)cc1)NC[C@H](O)c1cccc(Cl)c1 [TCMDC-131551] | 5.51 | 12 | 0.27 | 6.03 | 6.57
15 | CCC(CSC1CCCCC1)N(C)CCN(C)C(CC)CSC1CCCCC1 (stereo not shown) [TCMDC-131456] | 6.06 | 0.621 | 1.4 | 6.50 | –
16 | CC(C)CNCc1cccc(-c2cccc(CN(CCCN3CCN(C)CC3)C(=O)CCC3CCCC3)c2)c1 [TCMDC-140554] | 5.34 | 7.58 | 0.6 | 6.20 | –
17 | COc1ccc(CCNCCCCCCNCCc2ccc(Cl)cc2)c(Cl)c1OC [TCMDC-131272] | 5.21 | 24 | 0.26 | 6.08 | 6.59

Row | SMILES | pIC50 [1] | Ratio IC50 HepG2/IC50 P. falciparum [2] | IC50 [2] [µM] | pIC50 [3] | pIC50 [2]
18 | CCc1c(CCNCCc2cccc(CCNCCc3ccc(OC)c(OC)c3CC)c2)ccc(OC)c1OC [TCMDC-132056] | 5.39 | 7.47 | 0.55 | 6.44 | –
19 | Nc1c(Cl)cc(C(O)CNCCCCCOCCCc2ccc(O)c3ncccc23)cc1Cl.O=C(O)/C=C/C(=O)O (stereo not shown) [TCMDC-132088] | 5.35 | 10 | 0.45 | 6.00 | 6.34
20 | FC(F)(F)COc1ccc(CCNCCCCNCCc2ccc(OCC(F)(F)F)c3ccccc23)c2ccccc12 [TCMDC-137282] | 5.52 | 112 | 0.0267 | 6.19 | 7.57
21 | COc1cccc(OC)c1CN1CCC(N(C)CCCCCCCCN2CCC(OC(=O)Nc3ccccc3-c3ccccc3)CC2)CC1 [TCMDC-134684] | 5.47 | 3.29 | 1.04 | 6.34 | 5.99
22 | O=C(Nc1ccc(F)c(C(F)(F)F)c1)NC1CCN(CCCCCNC(=O)C2CC2c2ccc(Cl)c(Cl)c2)CC1 (stereo not shown) [TCMDC-136259] | 5.19 | 1.47 | 4.35 | 6.18 | –
23 | FC(F)(F)COc1ccc(CNCCCCCCNCc2ccc(OCC(F)(F)F)c3ccccc23)c2ccccc12 [TCMDC-137853] | 5.52 | 55 | 0.055 | 6.40 | –
24 | CN1CCCN(Cc2cccc(-c3ccc(NS(=O)(=O)c4cccc5cccnc45)cc3)c2)CC1 [TCMDC-136481] | 5.19 | <1 | > 10 | 6.02 | –
25 | CCCCOc1ccc(C(=O)C(CCC(CNC(C)(C)C)C(=O)c2ccc(OCCCC)cc2)CNC(C)(C)C)cc1 (stereo not shown) [TCMDC-124120] | 5.51 | 10 | 0.3 | 5.99 | –
26 | COc1ccc2c(OC)c(CNCCCCCCNCc3ccc4cc(OC)ccc4c3OC)ccc2c1 [TCMDC-137953] | 5.49 | 2 | 1.54 | 6.04 | –
27 | CCc1c(CCNCCCCCCNC(C)Cc2ccc3c(c2CC)OCO3)ccc(OC)c1OC (stereo not shown) [TCMDC-132052] | 5.51 | 10 | 0.33 | 6.06 | 6.49
28 | O=C(O)CCSSc1cccc[n+]1[O-] [TCMDC-141973] | 5.11 | 29 | 0.27 | 6.09 | –
29 | CN1CCC(N(Cc2ccc(-c3ccc(Cl)cc3)cc2)C(=O)Cn2c(CCc3cccc(F)c3F)cc(=O)c3ccccc32)CC1 [TCMDC-141357] | 5.17 | 2 | 3.43 | 6.06 | 5.47
30 | CN(C)CCN(Cc1ccccc1-c1ccc(CNCCc2ccccc2)cc1)C(=O)NC1CCCCC1 [TCMDC-140626] | 5.19 | 18 | 0.35 | 6.04 | –
31 | C[C@H](Cc1ccc(Oc2ccc(C[C@@H](C)NC[C@H](O)c3cccc(Cl)c3)cc2)cc1)NC[C@H](O)c1cccc(Cl)c1 [TCMDC-131560] | 5.72 | 7 | 0.27 | 6.25 | –
32 | COc1c(CCNCCCCNCCc2cc(Cl)c3ccccc3c2OC)cc(Cl)c2ccccc12 [TCMDC-137869] | 5.47 | 40 | 0.08 | 6.77 | 7.08
33 | COc1c(C2CCN(CCN3CCC(CNC(=O)c4ccc(-c5ccc(C#N)cc5)cc4)CC3)CC2)ccc2c1CCCC2 [TCMDC-138859] | 5.48 | 2.83 | 1.17 | 6.34 | 5.93
